The source of these data is PMC5374710, “Discovery of the first dual GSK3β inhibitor/Nrf2 inducer. A new multitarget therapeutic strategy for Alzheimer’s disease” (Scientific Reports, 2017).

As usually defined, the IC50 is the concentration at which inhibition is half-maximal. In general, inhibition refers to the change of the read-out against control, counted positive when it falls. By ΔTm is commonly meant the shift of the melting midpoint relative to a reference.

The target in data set [1] is T1, GSK3β (Homo sapiens, UniProt P49841).
T1 construct: purchased Promega V1991
The note with it: cited from earlier work.

Data set [2] deals with primary rat glial cells. The experiment in a line: Nitrite production in LPS-stimulated primary glial cultures (Griess). Type of data set: cell-based. The note with it: Glial cell, 24 h pre-incubation, 18 h co-incubation with LPS 1 μg/mL, read-out: IC50 nitrite reduction. The text has this:
(§1) Therefore, we envisaged the study of compounds 5a–t as potential anti-inflammatory agents. We used primary rat glial cells treated with lipopolysaccharide (LPS) to induce the production of nitrites and ROS as a model of glial activation. Nitrite production is directly proportional to the expression of the iNOS, that is over-expressed when LPS activates glial cells. ROS production is proportional to NOX activation after stimulation with LPS. Results are summarized in Table 2 as IC50s of nitrite production reduction and ROS production reduction. We have included sulforaphane as control in all experiments (see the Supporting Information).
Glial cells were pre-incubated with increasing concentrations of compounds for 24 hours. Then, treatments were removed and cells were incubated with LPS (1 μg/mL) alone or in presence of each compound at the desired concentration. Nitrite production was assessed 18 hours later by modified Griess assay. Briefly, samples (150 μl) were mixed with dapsone (75 μl) and NEDA (75 μl), and the mixture was incubated at room temperature for 5 min. Light absorption was measured at 550 nm in a microplate reader (Labtech, Offenburg, Germany). All data were normalized to basal nitrite production, considering this value as 100% of nitrite production. IC50 values were calculated from dose-response curves represented as percentage of nitrite production reduction induced by the different concentrations of each compound.
(§2) Mixed glial cultures were obtained from cerebral cortex of 2-5 day-old Sprague-Dawley rats. After removal of blood vessels and meninges, the forebrains were dissociated in DMEM/F12 medium. After mechanical dissociation, cells were plated (3x10^5 cells/ml) in DMEM/F12 medium with 20% fetal bovine serum (FBS) and 1 % penicillin/streptomycin (10,000 units), at 37 °C and in a 5 % CO2-supplemented air atmosphere. After 5 days, medium was substituted by DMEM/F12 medium with 10 % FBS. Cells were cultured for 7-10 days before treatment.
Primary rat glial cells were treated with compounds 5a-t at increasing concentrations (3, 10, 30 and 60 µM) during 24 h. Thereafter, treatments were removed and glial cells were co-incubated with increasing concentrations of each compound and LPS (1 µg/mL) for 18 h more. At the end of this period, supernatant was collected and the presence of nitrites was analyzed by the Griess method with modifications.^20 Each plate included non-treated cells as basal nitrite production, sulforaphane (SFN, 10 µM) as positive control. Briefly, samples (150 µl) were mixed with DAPSONE (75 µl) and NEDA (75 µl), and the mixture was incubated at room temperature for 5 min. Light absorption was measured at 550 nm in a microplate reader (Labtech, Offenburg, Germany). All data were normalized to basal nitrite production, considering this value as 100% of nitrite production. EC50 values were calculated from dose-response curves represented as percentage of nitrite production reduction induced by the different concentrations of each compound. Concentration response curves were fitted by non-linear regression analysis of individual concentration-response curves using GraphPad Prism software (San Diego, CA, USA). EC50 values are expressed as mean ± SEM of four different experiments in triplicate.
On the technique in general: Griess reagent forms a coloured azo dye with nitrite.

In data set [3] the target is T2, Nrf2-Keap1 protein-protein interaction (Homo sapiens, UniProt Q14145).
T2 construct: a solution of the Keap1 Kelch domain (200 nM)
The experiment in a line: Fluorescence polarization assay of Nrf2-Keap1 interaction. The note with it: ligand concentration 10 µM; read-out: FP % Inhibition (± SEM). It is filed as binding. For orientation: Fluorescence polarisation rises when a labelled molecule tumbles more slowly, as on binding a larger partner.
Procedure: Data are presented the means ± SEM of two experiments performed in triplicate.
The FP assay was carried out as previously described.^16,17 Inhibitors (10 µM) were plated onto untreated Corning® black 96 well plates containing a solution of the Keap1 Kelch domain (200 nM) and the fluorescent peptide FITC-β-DEETGEF-OH (1 nM) in Dulbecco’s Phosphate Buffered Saline (DPBS) at pH 7.4 (11% final DMSO concentration, 100 µL final volume). Following a 30 min incubation under slow agitation and away from light at room temperature, the plates were transferred to a PHERAstar microplate reader (BMG Labtech, Ortenberg, Germany) and the fluorescence polarisation was recorded. All measurements were recorded in triplicate.

For data set [4], the system named is HepG2 cells. The experiment in a line: Hepatotoxicity in HepG2 cell line (MTT). The note with it: 24 h.
Procedure: (§4) Thus, it is relevant to study the potential neurotoxicity and hepatotoxicity of the novel dual GSK3β inhibitors-Nrf2 inducers 5a–t.
(§5) Viability was measured as MTT reduction in presence of increasing concentrations of derivatives. Values are expressed as LD50 calculated from dose-response curves of four different concentrations.
(§6) HepG2 cells were cultured according to supplier indications in EMEM supplemented with 10 % heat-inactivated FBS, 100 µg/mL streptomycin and 100 units/mL penicillin. Cells were maintained at 37 °C in humidified atmosphere of 95 % air and 5 % CO2. For experimental procedures, cells were cultured in 96-well plates at density of 1x10^5 cells/well. Treatments were performed in 1% FBS medium unless other concentration was specified. Cells were used from 4 up to 13 passages.
(§7) Cells were cultured in 48-well (SH-SY5Y, 1x10^5 cells per well) or 96-well plates (HepG2, 1x10^5 cells per well) for 24 h. […] Control cells were incubated with the same concentration of DMSO (0.1 % final concentration) without any drug.
The target of a further data set is T3, Keap1 Kelch domain (Homo sapiens, UniProt Q14145).
T3 construct: A solution of the Keap1 Kelch domain protein (5 µM)
The experiment in a line: Differential scanning fluorimetry assay. It is filed as binding. The note with it: ligand concentration 10 µM.

Data set [5] addresses T1, GSK3β. The experiment in a line: GSK3β inhibition, luminescence Kinase-Glo assay. It is filed as biochemical. The note with it: for Ki: calculated from IC50 by Cheng-Prusoff equation, Km ATP 2.345 µM, read-out: Ki (apparent equilibrium dissociation constant); for IC50: four concentrations 0.1, 1, 10, 30 μM, ATP 1 μM, 1 h.
Procedure: GSK3β inhibitory activity was evaluated using the method developed by Baki[66], with modifications. Compounds were dissolved in assay buffer, containing 40 mM Tris (pH 7.5), 20 mM MgCl2, 0.1 mg/ml BSA (bovine serum albumin) and 50 μM dithiothreitol (DTT) at the desired concentrations. Firstly, 10 μl of enzyme (10 ng) and 10 μl of each compound were mixed for 30 min. Then, 20 μl of a mixture of ATP (1 μM) and GSK3β peptidic substrate were added to each well. The mixture was incubated for 60 min at 30 °C. Thereafter, the remaining ATP concentration was measured with the Kinase-Glo system following instructions from the supplier. Luminescence was measured in an Orion II microplate luminometer (Berthold, Germany) as relative light units (RLU). […] IC50 values were calculated by non-linear regression analysis of individual concentration-response curves using GraphPad Prism 5.0 software (San Diego, CA, USA).
The ability of the compounds to inhibit GSK3β was evaluated using the method developed by Baki^9 with some modifications. The tested compounds were dissolved in assay buffer, containing 40 mM Tris (pH 7.5), 20 mM MgCl2, 0.1 mg/ml BSA (bovine serum albumin) and 50 µM dithiothreitol (DTT), to achieve final reaction concentrations of 0.1, 1, 10 and 30 µM. […] The GSK3β inhibition assay was performed in white 96-well plates, in duplicates. Firstly, 10 µl of enzyme (10 ng) were added to each well, followed by 10 µl of the compounds at the desired concentration. After 30 minutes, 20 µl of a mixture of ATP and GSK3β peptidic substrate were added to each well, achieving a final concentration of 1 µM of ATP and 25 of µM peptidic substrate. The mixture was incubated at 30 °C for 60 minutes. Once the reaction was finished, the remaining ATP concentration was measured by adding 40 µl/well of Kinase-Glo reagent. The luminescence was measured in an Orion II microplate luminometer (Berthold, Germany) as relative light units (RLU). The luminescence recorded is proportional to the amount of ATP present in each well.
Apparent Ki for each compound were calculated from GSK3β Km value for ATP, applying the Cheng-Prusoff equation^10,11 in its simplified form: Ki = IC50/(1+([S]/Km)), in which S refers to the ATP concentration and Km is the Michaelis constant of the substrate for GSK3β.
Data set [6] relates to SH-SY5Y cells. The experiment in a line: Neuroprotection against okadaic acid (tau hyperphosphorylation), MTT. Type of data set: cell-based. The note with it: 1 μM, 24 h pre-incubation, 18 h co-incubation with OA 20 nM.
For data set [7], the system named is primary rat glial cells. The experiment in a line: ROS production in LPS-stimulated primary glial cultures (H2DCFDA). It is filed as cell-based. The note with it: Glial cell, 24 h pre-incubation, 18 h co-incubation with LPS, 3 h with fluorescent dye, read-out: IC50 ROS reduction.
Text: as §1
Besides the increase in nitrite production, it is well known that LPS stimulation of microglia also induces the activation of NOX, which induces superoxide free radical production. In fact, this mechanism is synergistic with the expression of iNOS and the production of nitrites. In this respect, there is a body of evidence showing that NOX activation is a major contributor to ROS oxidative stress and neuronal death in AD[57][58]. […] In general, potency to reduce ROS production increased from ortho to para and meta as observed above.
(§3) Primary glial cells were cultured in bottom transparent 96-well black plates following standard protocol. Cells were pre-incubated with the corresponding compound at the selected concentrations, for 24 hours, and therafter, co-incubated with the corresponding compound and LPS (1 μM) during 18 h more. Then, treatments were removed and cells were loaded with the fluorescent probe 2′,7′-dichlorodihydrofluorescein diacetate (H2DCFDA) (10 μM) for 45 minutes in serum free glial culture medium. All experiments included cells treated with culture medium alone (basal). Cells were washed twice with culture medium and fluorescence intensity was recorded in a Fluostar Optima multiwall pate reader (BMG Labtech, Offenburg, Germany) at 485/520 nm as excitation and emission wavelengths respectively, each hour, during 3 hours period. Data were normalized with respect to basal conditions that were considered as 100%.
as §3, with “µM)” for “μM)”, “2',7'-dichlorodihydrofluorescein” for “2′,7′-dichlorodihydrofluorescein”
as §2

Data set [8] relates to SH-SY5Y cells. The experiment in a line: Cytotoxicity in SH-SY5Y neuroblastoma cell line (MTT). The note with it: 24 h.
Procedure: as §5, §7
For a further data set, the system named is Nrf2. The experiment in a line: Nrf2-dependent luciferase reporter assay in AREc32 cell line. It is filed as cell-based. The note with it: AREc32 cells; for Nrf2 induction (luciferase activity), result in words: 24 h, compound 7 also at 60 and 100 μM; for EC50: Arec32, 24 h, read-out: CD (concentration required to double the luciferase reporter activity). The protocol:
Thereafter, we tested the ability of the compounds to induce the Nrf2 transcription factor. We used an Nrf2-dependent luciferase reporter assay in the AREc32 cell line[45]. Cells were cultured for 24 h and then treated with increasing concentrations of compounds 5a–t (0.3, 3, 10 and 30 μM), including the known inducer sulforaphane, containing an isothiocyanate motive as positive control.
AREc32 cells were plated in 96-well white plates (2 × 10^4 cells/well). After 24 h, cells were incubated with increasing concentrations of each compound in duplicate for 24 h. AREc32 cells express constitutively the plasmid pGL-8xARE that implements 8 copies of the EpRE sequences followed by luciferase reporter gen. Therefore, Nrf2 induction is related to the activation of EpRE sequences, expressing luciferase at the same extent as EpRE sequences are activated. The Luciferase Assay System (Promega E1500), was used according to provider protocol and luminescence was quantified in an Orion II microplate luminometer (Berthold, Germany). Fold induction of luciferase activity was normalized to basal conditions. Data are expressed as CD values, expressing the concentration required to double the luciferase activity. CD values are calculated from dose-response curves generated from fold induction of control conditions vs. inducer concentration and fitted by non-linear regression and data interpolated to 2-fold induction concentration.
Breast cancer cells stably transfected to express luciferase after EpRE sequences MCF-7/AREc32 named AREc32, were kindly provided by Dr. C. Roland Wolf (University of Dundee, UK).^14 AREc32 cells were maintained in DMEM with high glucose-glutamax, supplemented with 10 % FBS, 1 % penicillin-streptomycin (10,000 units), and geneticin (0.8 mg/ml G418) at 37 °C and in a 5 % CO2- air atmosphere.^14
AREc32 cells are constitutively transfected with the pGL-8xARE luciferase reporter gene, inserted after EpRE sequences. Thus, Nrf2 translocation to the nucleus induces the activation of the EpRE sequences, expressing their target phase II antioxidant genes, and expressing luciferase at the same extent.^15 AREc32 cells were plated in 96-well white plates (2X10^4 cells/well). After 24 h, cells were incubated with increasing concentrations of each compound in duplicate for 24 h (dissolved in DMSO to give a final 0.1 % vol/vol concentration of vehicle). Each plate included non-treated cells as basal luciferase expression and tBHQ (10 µM) as positive control. TBHQ is a potent Nrf2 inducer used as control in the development of the AREc32 cells.^14 Transfected clones are selected using G418. AREc32 cells express constitutively the plasmid pGL-8xARE that implements 8 copies of the EpRE sequences followed by a luciferase reporter gene. Therefore, the induction of Nrf2 is proportional to the activation of EpRE sequences, expressing luciferase at the same extent as EpRE sequences are activated. Luciferase production is then assessed by a bioluminescence assay. The Luciferase Assay System (Promega E1500), was used according to the Promega protocol and luminescence was quantified in an Orion II microplate luminometer (Berthold, Germany). Relative Light Units (RLU) were recorded for the contents of each well. Fold induction of luciferase activity was calculated by dividing the RLU obtained for the tests wells for each treatment by the average RLU obtained for the basal conditions. Data are expressed as CD values, expressing the concentration required to double the basal luciferase activity, used to quantify the Nrf2 induction potency. CD values are calculated from dose-response curves generated from fold induction of control conditions vs. inducer concentration and fitted by non-linear regression and data interpolated to value the 2-fold induction concentration, using GraphPad Prism software (San Diego, CA, USA).

Data set [9] relates to HepG2 cells. The note with it: human, 24 h.
Procedure: as §4, §5, §6, §7
Data set [10] deals with SH-SY5Y cells. The note with it: human, 24 h.
Procedure: as §5, §7

Structures are written as SMILES. Like-named read-outs stand apart in the source and are kept apart here.

T1 sequence (P49841 whole entry): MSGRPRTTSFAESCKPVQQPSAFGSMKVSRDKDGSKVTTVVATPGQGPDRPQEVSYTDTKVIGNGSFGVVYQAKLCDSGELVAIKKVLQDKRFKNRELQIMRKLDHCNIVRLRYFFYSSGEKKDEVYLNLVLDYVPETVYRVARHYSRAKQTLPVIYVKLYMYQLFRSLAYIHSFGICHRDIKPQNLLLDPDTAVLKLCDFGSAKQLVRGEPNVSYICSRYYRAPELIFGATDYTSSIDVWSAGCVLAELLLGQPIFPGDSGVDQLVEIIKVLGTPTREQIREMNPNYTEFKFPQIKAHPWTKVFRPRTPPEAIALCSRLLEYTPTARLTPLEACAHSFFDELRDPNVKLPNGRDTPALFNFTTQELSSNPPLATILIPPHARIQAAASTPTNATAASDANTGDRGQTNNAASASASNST
T3 sequence (Q14145 321-609 limits assumed): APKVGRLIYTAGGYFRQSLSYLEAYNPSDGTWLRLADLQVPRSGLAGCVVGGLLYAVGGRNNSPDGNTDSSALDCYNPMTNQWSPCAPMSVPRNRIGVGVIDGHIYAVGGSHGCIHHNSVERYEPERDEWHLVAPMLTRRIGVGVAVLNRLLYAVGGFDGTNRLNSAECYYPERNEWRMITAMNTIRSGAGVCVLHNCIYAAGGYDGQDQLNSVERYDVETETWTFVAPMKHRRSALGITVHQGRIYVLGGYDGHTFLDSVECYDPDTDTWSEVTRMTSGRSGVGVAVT
T2 sequence (Q14145 321-609 limits assumed): as above
Procedure for Keap1 Kelch domain: A solution of the Keap1 Kelch domain protein (5 µM) and detection dye SYPRO® orange (5X) in DPBS at pH 7.4 was added onto a qPCR plate containing the compound inhibitor (10 µM, 10% final DMSO concentration, 40 µL final volume). The plate was sealed using an optical foil seal and covered with aluminum foil to protect the dye from light. The plate was then transferred to a plate centrifuge and spun down briefly (200 G, 1 min, room temperature) to remove any bubbles and collect the solution at the bottom of the wells. Following a 30 min incubation at room temperature, the plate was placed into a 7500 Real time PCR machine and the fluorescence intensity at an excitation of 465 nm and emission of 580 nm was recorded during a temperature scan from 25 °C to 95 °C with a temperature ramping rate of 1 °C/min. All measurements were run in triplicate. Life Technologies software was used to set up the run on 7500 Software v.2.0.0 and the initial data processing was carried out on Protein thermal shift solution software. The raw data were exported to MS Excel and analysis was performed using a custom script provided by the Structural Genomics Consortium Oxford.^18 The temperature range over which the protein unfolding occurred was selected and the maximum and minimum (at temperatures below the maximum intensity) fluorescence intensities within this range were determined. The processed data were fitted to the Boltzmann equation by non-linear regression using the Origin Pro software.

In the case of `N#Cc1c(N)nc2[nH]nc(N)c2c1-c1ccccc1` [Compound 2], the IC50 on GSK3β [1] was 1500 nM.
Take `Cc1[nH]nc2c1C(c1ccncc1)C(C#N)=C(N)O2` (stereo not shown) [Compound 5t, 6-Amino-3-methyl-4-(pyridin-4-yl)-2,4-dihydropyrano[2,3-c]pyrazole-5-carbonitrile]: the IC50 worked out at 28.8 ± 3.61 µM in the data set on primary rat glial cells [2], 8.28 ± 0.7 µM on GSK3β [5] and 37.8 ± 1.17 µM with primary rat glial cells [7]. For the same compound, in data set [3], the inhibition at 10 µM worked out at 1.24 ± 3.22%. The “HepG2 LD50” value in the data set on HepG2 cells [4] was over 100 µM. The ΔTm at 10 µM on Keap1 Kelch domain was -0.53 ± 0.28 °C. The Ki at GSK3β [5] was 5.8 µM. For the same compound, in the data set with SH-SY5Y cells [6], the “Percentage of protection against okadaic acid toxicity” value is reported as “over 50%”. For the same compound, the “SH-SY5Y LD50” value in the data set on SH-SY5Y cells [8] is given as over 100 µM.
Regarding `Cc1[nH]nc2c1C(c1ccccc1)C(C#N)=C(N)N2` (stereo not shown) [Compound 7, 6-amino-3-methyl-4-phenyl-4,7-dihydro-2H-pyrazolo[3,4-b]pyridine-5-carbonitrile], in the data set with Nrf2, the “Nrf2 induction (luciferase activity), result in words” value is “completely unable to induce Nrf2”. Further, at GSK3β [5], the Ki is 13.1 µM and the IC50 was found to be 18.6 ± 0.4 µM.
With `COc1ccc2[nH]cc(CCNC(C)=O)c2c1` [Melatonin], the “HepG2 LD50” value in the data set on HepG2 cells [9] is reported as over 100 µM. Further, the “SH-SY5Y LD50” value with SH-SY5Y cells [10] is on record as over 100 µM.
As to `Cn1cc(C2=C(c3ccc(Cl)cc3Cl)C(=O)NC2=O)c2ccccc21` [SB216763, reference compound], in the data set with Nrf2, the “Nrf2 induction (luciferase activity), result in words” value is given as “inability of the GSK3β inhibitor SB216763 to induce Nrf2 transcriptional activity” and the EC50 is over 30000 nM. Further, the “HepG2 LD50” value in the data set on HepG2 cells [9] is reported as over 100 µM. Besides, the “SH-SY5Y LD50” value with SH-SY5Y cells [10] was over 100 µM.
On to `C[S+]([O-])CCCCN=C=S` (stereo not shown) [Sulforaphane], for which the IC50 in the data set with primary rat glial cells [2] was found to be 1.4 ± 0.3 µM; in the data set with primary rat glial cells [7], 2.84 ± 0.55 µM. Also, the EC50 in the data set on Nrf2 came to 540 ± 70 nM.
